The subject of one assay is Plasmodium falciparum. Conditions: reported to be more active than artesunate; cited from earlier work.
Assay [1] concerns the target T1, ADH1 (Artemisia annua alcohol dehydrogenase) (Artemisia annua, UniProt A0A2U1Q018, G20S/L19S/V78I).
T1 construct: 6xHis (N-terminal tag and attB linker encoded by pDEST17); made in house; host or cells: E. coli Rosetta (DE3)
Kind of assay: Specific ADH1 activity enzyme assay (crude protein from E. coli, NAD+, GC/MS analysis). It is filed as biochemical. Conditions: 1 mM NAD+, 0.1 μg/μl substrate, approximately 90 μg crude protein, 30° C., 30 minutes. On the procedure: The Gateway vector pDEST17 had the Adh1 gene inserted and was subsequently transformed into a competent expression E. coli strain Rosetta (DE3). These cells were grown overnight in 3 ml of LB broth amended with 100 μg/ml ampicillin. An aliquot of 1 ml overnight culture was sub cultured to 100 ml of fresh LB broth also amended with 100 μg/ml of ampicillin. The culture was incubated at 37° C. until the optical density reached 0.8 at 600 nm. A final concentration of 1 mM IPTG was then added to the culture and the flask was incubated at 30° C. for another 4 hours. Cells were harvested by centrifugation at 10,000 rcf for 10 minutes. Pelleted cells were resuspended in 20 mM sodium phosphate pH 7.4 and 500 mM NaCl. Cell walls were disrupted by sonication on ice at intervals of 0.7 seconds for 1 minute, followed by a 1 minute cool down this was repeated three times. The sonicated cells were centrifuged at 10,000 rcf for 10 minutes; the supernatant which contained the soluble ADH1 was concentrated and desalted by spin dialysis (using Amicon Ultra-15 devices; Millipore, Mass.), and stored in a new tube at 4° C. This method of recombination and expression was also used for a control plasmid pDEST17-gus.
Enzyme assay was prepared to determine the specific activity of ADH1. […]

SMILES strings stand for the structures.

T1 sequence (A0A2U1Q018 whole entry L19S/G20S/V78I): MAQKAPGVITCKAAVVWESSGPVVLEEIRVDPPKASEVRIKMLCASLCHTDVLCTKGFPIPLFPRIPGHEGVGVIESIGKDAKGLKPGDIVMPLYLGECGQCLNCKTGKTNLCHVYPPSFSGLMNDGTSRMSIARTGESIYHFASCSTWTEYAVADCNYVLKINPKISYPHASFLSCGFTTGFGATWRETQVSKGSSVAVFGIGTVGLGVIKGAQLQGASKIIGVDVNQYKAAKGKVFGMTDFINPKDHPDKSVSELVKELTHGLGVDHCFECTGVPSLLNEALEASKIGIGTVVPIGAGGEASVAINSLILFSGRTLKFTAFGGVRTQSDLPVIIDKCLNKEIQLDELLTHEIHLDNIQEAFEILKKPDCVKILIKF

Take `C[C@H]1[C@H](N2CCS(=O)(=O)CC2)O[C@@H]2O[C@@]3(C)CC[C@H]4[C@H](C)CC[C@@H]1[C@@]24OO3` [Artemisone]: in the assay on Plasmodium falciparum, the “activity relative to artesunate” value is listed as 10-30 fold.

As for `C=C(CO)[C@@H]1CC[C@@H](C)[C@@H]2CCC(C)=C[C@@H]21` [artemisinic alcohol], the “oxidation of substrate by ADH1 (product observed by GC/MS)” value in assay [1] was “presence of product artemisinic aldehyde”. As to `CC1=C[C@H]2[C@@H](CC1)[C@H](C)CC[C@H]2[C@@H](C)CO` [dihydroartemisinic alcohol, (11R)-dihydroartemisinic alcohol], in assay [1], the “oxidation of substrate by ADH1 (product observed by GC/MS)” value is on record as “no observed product”.

These data come from patent publication US20110162097A1, “NUCLEOTIDE SEQUENCE ENCODING AN ALCOHOL DEHYDROGENASE FROM ARTEMISIA ANNUA AND USES THEREOF” (priority 2008, published 2011).
